Measured values as given in publication PMC6268785, “Inhibition of PCAF Histone Acetyltransferase, Cytotoxicity and Cell Permeability of 2-Acylamino-1-(3- or 4-Carboxy-phenyl)benzamides” (Molecules, 2012).
Where two headings read alike, the source gives them in different places.

Key:
[1] = test system: HT-29 (human colon cancer); experiment: SRB cytotoxicity assay, HT-29; type: cell-based; conditions: read-out: IC50 against HT-29
Experimental: (§1) The cell lines used were HSF (normal cell), HT-29 (human colon cancer), HCT-116 (human colon cancer), MDA-231 (human breast cancer), A549 (human lung cancer), Hep3B (human hepatoma cancer), HeLa (human cervical cancer) and Caki (human kidney cancer) supplied from the Korean Cell Line Bank (Daejeon, Korea). Cells were grown as monolayer cultures in the T-175 flasks (Costar), were subcultured twice a week at 37 °C in an atmosphere containing 5% CO2 in air and 100% relative humidity and maintained at low passage number (5 to 20). RPMI medium 1640, Dulbecco’s modified eagle medium (DMEM, Gibco), fetal bovin serum, (FBS, Gibco), penicillin-streptomycin (P-S, Gibco), phosphate buffered saline pH 7.4 (PBS, Gibco), 0.25% trypsin-EDTA (Gibco), 0.4% trypan blue, dimethyl sulfoxide (DMSO) (Sigma-Aldrich), trichloroacetic acid (Sigma-Aldrich) and sulforhodamine B (SRB) (Sigma-Aldrich) were used.
(§2) Adherent cells at the logarithmic growth phase were detached the by an addition of 3 mL of trypsin-EDTA (1:250) mixture, and they were incubated for 5 min at 37 °C. The cells were plated (200 μL per well) in 96 well flat-bottom microplates at densities of 3 × 10^3 cells per well. The cells were plated in sextuplicate (six replicate wells per cell density) and experiments were performed three times. Microplates were left for 6 h at 37 °C, so that the cells were able to attach to the bottom of the wells before the fixation protocol was carried out.
(§3) […]. Then, cold (4 °C) 50% TCA (50 μL) was added to the top of 200 μL culture medium in each well to produce a final TCA concentration of 10%. Microplates were left for 30 min at 4 °C, and subsequently, they were washed five times with deionized water. Microplates were then left to dry at room temperature for at least 24 h.
(§4) The SRB assay was carried out as previously described. In brief, 0.4% (w/v) sulforhodamine B (70 μL) in acetic acid solution were added to each well and left at room temperature for 20 min. SRB was removed and the plates washed five times with 1% acetic acid before air drying. Bound SRB was solubilized with 10 mM unbuffered Tris-base solution (200 μL) and the plates were left on a plate shaker for at least 10 min. Absorbance was read in a 96-well plate reader at 492 nm subtracting the background measurement at 620 nm. The test optical density (OD) value was defined as the absorbance of each individual well, minus the blank value.

[2] = test system: A549 (human lung cancer); experiment: SRB cytotoxicity assay, A549; type: cell-based; conditions: read-out: IC50 against A549
Experimental: as §1, §2, §3, §4

[3] = test system: HSF (normal cell); experiment: SRB cytotoxicity assay, HSF normal cell line; type: cell-based; conditions: read-out: IC50 against HSF
Experimental: as §1, §2, §3, §4

[4] = test system: HCT-116 (human colon cancer); experiment: SRB cytotoxicity assay, HCT-116; type: cell-based; conditions: read-out: IC50 against HCT-116
Experimental: as §1, §2, §3, §4

[5] = test system: Hep3B (human hepatoma cancer); experiment: SRB cytotoxicity assay, Hep3B; type: cell-based; conditions: mean ± standard error, read-out: IC50 against Hep3B
Experimental: as §1, §2, §3, §4

[6] = test system: MDA-231 (human breast cancer); experiment: SRB cytotoxicity assay, MDA-231; type: cell-based; conditions: read-out: IC50 against MDA-231
Experimental: as §1, §2, §3, §4

[7] = test system: HeLa (human cervical cancer); experiment: SRB cytotoxicity assay, HeLa; type: cell-based; conditions: mean ± standard error, read-out: IC50 against HeLa
Experimental: as §1, §2, §3, §4

[8] = target: T1, PCAF HAT (Homo sapiens, UniProt Q92831); experiment: PCAF HAT inhibition assay (fluorescent, CPM detection of CoA-SH); type: biochemical; conditions: for inhibition at 100 µM: read-out: PCAF HAT inhibition (%)
T1 construct: purchased Cayman Co., Ann Arbor, MI, USA
T1 sequence (Q92831 492-658 limits assumed): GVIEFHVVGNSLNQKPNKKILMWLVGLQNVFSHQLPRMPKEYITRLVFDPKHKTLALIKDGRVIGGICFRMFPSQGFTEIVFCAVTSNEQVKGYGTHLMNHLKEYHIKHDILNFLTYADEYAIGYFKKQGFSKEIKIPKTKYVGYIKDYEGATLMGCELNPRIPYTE
Experimental: The structural analogues were derived from anthranilic acid by introducing the acyl chain at the 2- position, and 3- or 4-carboxyaniline at the 1-position, respectively. The ability of new compounds 8–19 to inhibit HAT activity was analyzed in vitro using PCAF HAT enzymatic kit (Cayman Co., Ann Arbor, MI, USA). Anacardic acid, a commercially available HAT inhibitor, was used as a positive control.
The PCAF HAT inhibition studies were performed using a fluorescent assay as described previously. The enzyme activity was measured by the detection of CoA-SH by the fluorescent dye 7-(diethylamino)-3-(4'-maleimidylphenyl)-4-methylcoumarin (CPM). In brief, assay buffer (15 μL), acetyl CoA (5 μL) and diluted PCAF (10 μL) were added to all the wells. Dimethylsulfoxide (DMSO, 5 μL) was added to 100% initial activity wells and the background wells, and inhibitor (100 μM, 5 μL) was added to the inhibitor wells. PCAF HAT peptide (20 μL) was added to all the wells except the background wells. The wells were incubated on a shaker for 5 minutes at room temperature and HAT stop reagent (50 μL) was added to all the wells including the background wells. HAT peptide (20 μL) was added to the background wells only. HAT developer (100 μL) was added to all the wells including the background wells and incubated for 20 minutes at room temperature. Then, read the plate using an excitation wavelength of 360–390 nm and an emission wavelength of 450–470 nm. Subtract the fluorescence of the background wells from the fluorescence of the 100% initial activity and the inhibitor wells. The percent inhibition for each sample was determined as follows: [drawing 2]

[9] = test system: Caki (human kidney cancer); experiment: SRB cytotoxicity assay, Caki; type: cell-based; conditions: mean ± standard error, read-out: IC50 against Caki
Experimental: as §1, §2, §3, §4

[10] = test system: Caco-2 cell monolayers; experiment: Caco-2 cell permeability assay; type: in vitro ADME, human; conditions: Caco-2, apical to basolateral, initial concentration 50 μM; mean ± SD
[11] = test system: seven human cancer cell lines; experiment: SRB cytotoxicity assay, panel of seven cancer cell lines (summary in words); type: cell-based
Experimental: as §1
Adherent cells at the logarithmic growth phase were detached the by an addition of 3 mL of trypsin-EDTA (1:250) mixture, and they were incubated for 5 min at 37 °C. […]
The SRB assay was carried out as previously described. […] Absorbance was read in a 96-well plate reader at 492 nm subtracting the background measurement at 620 nm. The test optical density (OD) value was defined as the absorbance of each individual well, minus the blank value.

[12] = Homo sapiens, HT-29, mean ± standard error
[13] = Homo sapiens, A549, mean ± standard error
[14] = Homo sapiens, HCT-116, mean ± standard error
[15] = Homo sapiens, MDA-MB-231, mean ± standard error

| PCAF HAT inhibition (%) ([8]; 100 μM compound) | Compound | IC50 ([1]; mean ± standard error) [µM] | IC50 ([2]; mean ± standard error) [µM] | IC50 [3] [µM] | IC50 ([4]; mean ± standard error) [µM] | IC50 [5] [µM] | IC50 ([6]; mean ± standard error) [µM] | IC50 [7] [µM] | IC50 [9] [µM] | other results |
| --- | --- | --- | --- | --- | --- | --- | --- | --- | --- | --- |
| 45 | 2-Decanoylamino-1-(3-carboxyphenyl)benzamide [Compound 13] | > 100 | > 100 | > 100 | > 100 | > 100 | > 100 | > 100 | > 100 |  |
| 55 | 2-Decanoylamino-1-(4-carboxyphenyl)benzamide [Compound 12] | > 100 | > 100 | > 100 | > 100 | > 100 | > 100 | > 100 | 63.8 ± 2.39 |  |
| 42 | 2-Dodecanoylamino-1-(3-carboxyphenyl)benzamide [Compound 15] | > 100 | > 100 | > 100 | > 100 | > 100 | > 100 | > 100 | > 100 |  |
| 46 | 2-Dodecanoylamino-1-(4-carboxyphenyl)benzamide [Compound 14] | > 100 | > 100 | > 100 | 53.3 ± 2.05 | > 100 | > 100 | > 100 | > 100 |  |
|  | 2-Hexadecanoylamino-1-(3-carboxyphenyl)benzamide [Compound 19] | 44.8 ± 2.98 | 40.5 ± 3.59 | > 100 | 40.3 ± 4.3 | 43.8 ± 5.91 | > 100 | 36.9 ± 3.76 | 82.6 ± 5.89 | PCAF HAT inhibition (%) ([8]; 100 μM compound, 100 µM): 61% |
|  | 2-Hexanoylamino-1-(3-carboxyphenyl)benzamide [Compound 9] | > 100 | > 100 | > 100 | > 100 | > 100 | > 100 |  | > 100 |  |
| 67 | 2-Hexanoylamino-1-(4-carboxyphenyl)benzamide [Compound 8] | > 100 | > 100 | > 100 | > 100 | > 100 | > 100 |  | > 100 |  |
|  | 2-Octanoylamino-1-(3-carboxyphenyl)benzamide [Compound 11] | > 100 | > 100 | > 100 | > 100 | > 100 | > 100 | > 100 | > 100 | PCAF HAT inhibition (%) ([8]; 100 μM compound, 100 µM): 52% |
| 66 | 2-Octanoylamino-1-(4-carboxyphenyl)benzamide [Compound 10] | > 100 | > 100 | > 100 | > 100 | > 100 | 51.8 ± 0.68 | > 100 | 69.5 ± 7.16 |  |
|  | Nc1ccccc1C(=O)O [A, Anthranilic acid, reference compound] |  |  | > 100 |  |  |  |  |  | IC50 [1, 12]: > 100 µM; IC50 [2, 13]: > 100 µM; cytotoxic activity against cancer cell lines (in words) [11]: inactive against most of cancer cell lines; IC50 [4, 14]: > 100 µM; IC50 ([5]; Homo sapiens, Hep3B): > 100 µM; IC50 [6, 15]: > 100 µM; IC50 ([7]; Homo sapiens, HeLa): > 100 µM; inhibition at 100 µM [8]: 34%; IC50 ([9]; Homo sapiens): > 100 µM |
|  | CCCCCCCCCCCCCCCc1cccc(O)c1C(=O)O [AA, Anacardic acid, reference compound] |  |  | > 100 |  |  |  |  |  | IC50 [1, 12]: 60.4 ± 6.36 µM; IC50 [2, 13]: 70.76 ± 0.41 µM; IC50 [4, 14]: 96.3 ± 4.33 µM; IC50 ([5]; Homo sapiens, Hep3B): > 100 µM; IC50 [6, 15]: 44.3 ± 4.2 µM; inhibition at 100 µM ([8]; 100 μM compound): 68%; IC50 ([9]; Homo sapiens): > 100 µM |

| Compound | PCAF HAT inhibition (%) ([8]; 100 μM compound) | IC50 ([1]; mean ± standard error) [µM] | IC50 ([2]; mean ± standard error) [µM] | IC50 [3] [µM] | IC50 ([4]; mean ± standard error) [µM] | IC50 [5] [µM] | IC50 ([6]; mean ± standard error) [µM] | IC50 [7] [µM] | IC50 [9] [µM] | other results |
| --- | --- | --- | --- | --- | --- | --- | --- | --- | --- | --- |
| 2-Tetradecanoylamino-1-(3-carboxyphenyl)benzamide [Compound 17] | 79 | 54.9 ± 3.49 | 32.1 ± 1.36 | > 100 | 29.2 ± 3.86 | 57.52 ± 0.26 | 62.43 ± 0.58 | 55 ± 3.14 | 55.9 ± 5.09 | Measured Papp [10]: 71.48 ± 4.67 ×10^−6 cm/s |
| 2-Tetradecanoylamino-1-(4-carboxyphenyl)benzamide [Compound 16] | 72 | 54.8 ± 1.05 | 46.2 ± 0.83 | > 100 | 43.9 ± 2.39 | 73.3 ± 9.61 | 79.1 ± 3.27 | 56.5 ± 0.87 | 63.08 ± 0.21 | Measured Papp [10]: 68.21 ± 3.56 ×10^−6 cm/s |
